In experiment [1] the test system is rabbit corneal wound model. The experiment is described as follows: Corneal wound healing promotion action 1 (in vivo), approx. 6 mm corneal epithelial abrasion. Set-up: species or system Japanese white rabbit. The note with it: 5 μM eye drop, 30 μl per instillation; 0 hr after abrasion; mean ± SD, n=6. How it is done:
(2) Corneal Wound Healing Promotion Action 1 (In Vivo)
Using a male Japanese white rabbit, a wound of approximately 6 mm in diameter was produced in the cornea by inducing corneal epithelial abrasion in accordance with the method of Cintron et al. (Ophthalmic Res., 11, pp. 90-96 (1979)). The wound area was measured using the fluorescein-stained area as an index. The effects of the test compound on corneal wound healing were examined.
The eye drops containing the respective concentrations of the test compound were instilled (30 μl at a time) at 0, 3, 6, 9, 12, 18, 24, 27, 30, 33, 36, 42, and 48 hours after inducing corneal epithelial abrasion. In measuring the wound area, fluorescein staining was carried out and a photograph of the cornea was measured. The fluorescein-stained area of the photographed cornea was computed using an image analysis processing system.
In Tables 1 and 2, the respective values indicate the mean value±standard deviation (n=6). Statistical analysis was carried out using Dunnett's multiple comparison with respect to PBS with the area of the corneal wound portion immediately after (0 hours after) corneal epithelial abrasion being set to 100% (*p<0.05, **p<0.01; vs. control).

Experiment [2] relates to rabbit corneal wound model. Put plainly: Corneal wound healing promotion action 2 (in vivo), approx. 8 mm corneal epithelial abrasion. More on the design: species or system Japanese white rabbit. The settings on record: 0.3% eye drop, 25 μl per instillation; 0 hr after abrasion; mean ± SD, n=6. The protocol: (3) Corneal Wound Healing Promotion Action 2 (In vivo)
Using the same method as (2) above, corneal epithelial abrasion was induced in a Japanese white rabbit to produce a wound of approximately 8 mm in diameter in the cornea. The wound area was measured using the fluorescein-stained area as an index to examine the effects on corneal wound healing.
The eye drops containing the respective concentrations of the test compound were instilled (25 μl at a time) at 0, 6, 12, 18, 24, 30, 36, 42, 48, and 54 hours after induction corneal epithelial abrasion. In measuring the wound area, fluorescein staining was carried out and a photograph of the cornea was measured. The fluorescein-stained area of the photographed cornea was computed using an image analysis processing system.
In Tables 3 and 4, the respective values indicate the mean value±standard deviation (n=6). Statistical analysis was carried out using Dunnett's multiple comparison with respect to physiological saline with the area of the corneal wound portion immediately after (0 hours after) corneal epithelial abrasion being set to 100% (*p<0.05, **p<0.01; vs. control).

On to “EGF: polypeptide with a molecular weight of 6000, mitosis-promoting growth factor for corneal epithelium (NSDSECPLSHDGYCLHDGVCMYIEALDKYACNCVVGYIGERCQYRDLKWWELR; Epidermal growth factor; UniProt P01133 971-1023, looked up)”, for which, in experiment [1], the “Healing ratio (%)” value is given as 0%.
hyaluronic acid: the “Healing ratio (%)” value in experiment [2] is 0%.

The values are drawn from patent US8207119B2, “Ophthalmological composition” (Nihon Tenganyaku Kenkyusho Co., Ltd., priority 2002, dated 2012).
